Data on 28 compounds can be found in PMC9062502 (RSC Advances, 2019).

One series concerns the target xanthine oxidase (Bos taurus, UniProt P80457). The experiment in a line: Fluorescence-quenching binding to xanthine oxidase. Particulars: for Affinity n (number of binding sites per enzyme molecule): double-logarithm formula; for Affinity n (number of binding sites per enzyme molecule) / Affinity K sv (dynamic quenching constant): 25 °C; for Affinity K sv (dynamic quenching constant): xanthine oxidase 1.0 μmol L^−1 in PBS, λex 280 nm, emission 335 nm; for Quenching of xanthine oxidase fluorescence (in words): no binding constant value.

The conditions of series [1]: partition coefficient; ref https://pubchem.ncbi.nlm.nih.gov/compound/; cited from earlier work.

Structures are written as SMILES.

Chain of xanthine oxidase (P80457 2-1332): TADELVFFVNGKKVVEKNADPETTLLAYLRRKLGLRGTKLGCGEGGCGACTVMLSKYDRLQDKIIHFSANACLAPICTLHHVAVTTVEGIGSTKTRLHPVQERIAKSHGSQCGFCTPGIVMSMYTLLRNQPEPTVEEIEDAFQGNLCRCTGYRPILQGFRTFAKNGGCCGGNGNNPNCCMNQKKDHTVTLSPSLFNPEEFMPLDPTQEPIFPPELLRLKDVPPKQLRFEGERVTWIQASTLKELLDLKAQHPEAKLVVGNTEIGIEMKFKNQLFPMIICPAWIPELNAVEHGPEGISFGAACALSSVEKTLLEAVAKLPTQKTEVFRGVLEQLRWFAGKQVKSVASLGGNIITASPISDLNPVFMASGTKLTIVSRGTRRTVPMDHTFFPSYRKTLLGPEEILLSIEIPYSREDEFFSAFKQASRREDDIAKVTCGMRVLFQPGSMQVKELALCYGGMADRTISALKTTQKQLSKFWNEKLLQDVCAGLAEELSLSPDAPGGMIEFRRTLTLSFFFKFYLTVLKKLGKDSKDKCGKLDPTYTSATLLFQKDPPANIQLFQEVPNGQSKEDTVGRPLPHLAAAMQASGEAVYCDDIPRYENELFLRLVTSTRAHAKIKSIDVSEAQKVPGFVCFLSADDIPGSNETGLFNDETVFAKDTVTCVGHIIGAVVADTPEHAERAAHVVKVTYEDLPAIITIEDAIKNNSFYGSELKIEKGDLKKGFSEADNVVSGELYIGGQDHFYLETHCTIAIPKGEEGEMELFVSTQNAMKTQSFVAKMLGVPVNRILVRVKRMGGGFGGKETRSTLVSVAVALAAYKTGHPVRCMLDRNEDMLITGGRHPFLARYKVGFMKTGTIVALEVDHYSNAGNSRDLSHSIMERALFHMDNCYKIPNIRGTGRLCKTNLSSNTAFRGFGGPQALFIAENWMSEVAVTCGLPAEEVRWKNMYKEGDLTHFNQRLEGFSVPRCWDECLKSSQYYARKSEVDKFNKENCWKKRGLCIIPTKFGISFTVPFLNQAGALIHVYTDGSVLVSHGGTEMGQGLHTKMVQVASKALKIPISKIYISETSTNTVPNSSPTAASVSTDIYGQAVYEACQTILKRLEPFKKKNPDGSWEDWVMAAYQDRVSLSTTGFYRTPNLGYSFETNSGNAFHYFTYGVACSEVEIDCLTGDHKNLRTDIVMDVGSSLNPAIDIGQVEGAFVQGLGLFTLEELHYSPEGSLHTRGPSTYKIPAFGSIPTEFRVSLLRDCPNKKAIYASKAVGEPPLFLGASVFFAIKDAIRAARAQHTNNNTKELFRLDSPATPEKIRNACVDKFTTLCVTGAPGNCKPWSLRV

Regarding `O=c1c(-c2ccc(O)cc2)coc2cc(O)cc(O)c12` [Genistein], on xanthine oxidase, the “Affinity n (number of binding sites per enzyme molecule)” value was found to be 1.3911 and the “Affinity K sv (dynamic quenching constant)” value (“Affinity K sv” below) is 0.0537 10^6. In series [1], the “X log P3” value is listed as 2.7.
Consider `COc1c(O)cc2oc(-c3ccc(O)cc3)cc(=O)c2c1O` [Hispidulin], for which, at xanthine oxidase, the “Affinity n (number of binding sites per enzyme molecule)” value was 1.2571 and the “Affinity K sv” value was 0.0989 10^6. Besides, the “X log P3” value in series [1] is recorded as 1.7.
Take `COc1ccc(-c2cc(=O)c3c(OC)c(OC)c(OC)c(OC)c3o2)cc1OC` [Nobiletin]: on xanthine oxidase, the “Affinity n (number of binding sites per enzyme molecule)” value was 2.8371 and the “Affinity K sv” value is given as 0.9637 10^6. In addition, in series [1], the “X log P3” value is reported as 3.0.
Consider `O=C(O)[C@H]1O[C@@H](Oc2cc3oc(-c4ccccc4)cc(=O)c3c(O)c2O)[C@H](O)[C@@H](O)[C@@H]1O` [Baicalin], for which, at xanthine oxidase, the “Affinity n (number of binding sites per enzyme molecule)” value was determined as 1.8782 and the “Affinity K sv” value is given as 0.3668 10^6. Also, in series [1], the “X log P3” value is recorded as 1.1.
Take `Oc1cc(O)c2c(c1)O[C@H](c1ccc(O)c(O)c1)[C@H](O)C2` [EC (2,3-cis), epicatechin]: at xanthine oxidase, the “Quenching of xanthine oxidase fluorescence (in words)” value was “not able to quench the fluorescence”.
As to `O=c1cc(-c2ccccc2)oc2cc(O)c(O)c(O)c12` [Baicalein], at xanthine oxidase, the “Affinity n (number of binding sites per enzyme molecule)” value came to 1.5312 and the “Affinity K sv” value was 0.1981 10^6. The “X log P3” value in series [1] was 1.7.
With `O=c1c(O)c(-c2ccc(O)c(O)c2)oc2cc(O)cc(O)c12` [Quercetin], on xanthine oxidase, the “Affinity n (number of binding sites per enzyme molecule)” value is 1.0614 and the “Affinity K sv” value is 0.0477 10^6. Moreover, the “X log P3” value in series [1] was 1.5.
With `O=c1cc(-c2ccccc2)oc2cc(O)cc(O)c12` [Chrysin], at xanthine oxidase, the “Affinity n (number of binding sites per enzyme molecule)” value came out at 0.6025 and the “Affinity K sv” value is 0.0195 10^6. In addition, in series [1], the “X log P3” value was 2.1.
`C[C@@H]1O[C@@H](OC[C@H]2O[C@@H](Oc3c(-c4ccc(O)c(O)c4)oc4cc(O)cc(O)c4c3=O)[C@H](O)[C@@H](O)[C@@H]2O)[C@H](O)[C@H](O)[C@H]1O` [Rutin]: on xanthine oxidase, the “Affinity n (number of binding sites per enzyme molecule)” value is reported as 1.2904 and the “Affinity K sv” value is given as 0.0532 10^6. For the same compound, the “X log P3” value in series [1] was −1.3.
Consider `O=C1c2c(O)cc(O)cc2O[C@H](c2cc(O)c(O)c(O)c2)[C@H]1O` [Dihydromyricetin], for which, on xanthine oxidase, the “Affinity n (number of binding sites per enzyme molecule)” value came out at 1.2262 and the “Affinity K sv” value is recorded as 0.0470 10^6. Further, the “X log P3” value in series [1] is 1.1.
Take `C[C@@H]1O[C@@H](Oc2cc(O)c3c(=O)c(O[C@@H]4O[C@@H](C)[C@H](O)[C@@H](O)[C@H]4O)c(-c4ccc(O)cc4)oc3c2)[C@H](O)[C@H](O)[C@H]1O` [Kaempferitrin]: in series [1], the “X log P3” value is given as −0.1.
For `O=C1C[C@@H](c2ccc(O)cc2)Oc2cc(O)cc(O)c21` [Naringenin], at xanthine oxidase (aglycone named, 3,7-glycosylation of kaempferol, 3-glycosylation of quercetin, 7-glycosylation of naringenin), the “Fold increase of affinity for xanthine oxidase after glycosylation” value came to 73.3 times. Further, at xanthine oxidase (dihydromyricetin versus myricetin, naringenin versus apigenin), the “Fold higher affinity for xanthine oxidase than the C2=C3 unsaturated counterpart” value is given as 4676 times. Also, at xanthine oxidase, the “Affinity n (number of binding sites per enzyme molecule)” value turned out to be 1.2510 and the “Affinity K sv” value is 0.0568 10^6. In series [1], the “X log P3” value was 2.4.
With `O=c1cc(-c2ccccc2)oc2ccccc12` [Flavone], on xanthine oxidase, the “Affinity n (number of binding sites per enzyme molecule)” value was found to be 1.3695 and the “Affinity K sv” value is given as 0.0552 10^6. Further, in series [1], the “X log P3” value is listed as 3.6.
With `COc1ccc(-c2cc(=O)c3c(OC)c(OC)c(OC)c(OC)c3o2)cc1` [Tangeretin], on xanthine oxidase, the “Affinity n (number of binding sites per enzyme molecule)” value is 1.0022 and the “Affinity K sv” value is recorded as 0.1498 10^6. Further, the “X log P3” value in series [1] is 3.0.
With `O=c1c(O)c(-c2cc(O)c(O)c(O)c2)oc2cc(O)cc(O)c12` [Myricetin], at xanthine oxidase, the “Affinity n (number of binding sites per enzyme molecule)” value turned out to be 1.0764 and the “Affinity K sv” value is recorded as 0.0294 10^6. The “X log P3” value in series [1] is given as 1.2.
Turning to `C[C@@H]1O[C@@H](O[C@H]2[C@H](Oc3cc(O)c4c(c3)O[C@H](c3ccc(O)cc3)CC4=O)O[C@H](CO)[C@@H](O)[C@@H]2O)[C@H](O)[C@H](O)[C@H]1O` [Naringin], on xanthine oxidase, the “Affinity n (number of binding sites per enzyme molecule)” value is recorded as 1.6838 and the “Affinity K sv” value was 0.0846 10^6. The “X log P3” value in series [1] was −0.5.
For `O=c1c(O)c(-c2ccc(O)c(O)c2)oc2cc(O)ccc12` [Fisetin], on xanthine oxidase, the “Affinity n (number of binding sites per enzyme molecule)” value amounted to 1.3663 and the “Affinity K sv” value was 0.0729 10^6. Further, in series [1], the “X log P3” value is 2.0.
`O=c1c(O)c(-c2ccc(O)cc2)oc2cc(O)cc(O)c12` [Kaempferol]: at xanthine oxidase, the “Affinity n (number of binding sites per enzyme molecule)” value came out at 1.0535 and the “Affinity K sv” value was 0.0225 10^6. Besides, in series [1], the “X log P3” value is given as 1.9.
Take `O=c1cc(-c2ccc(O)cc2)oc2cc(O)cc(O)c12` [Apigenin]: on xanthine oxidase, the “Affinity n (number of binding sites per enzyme molecule)” value was 0.4524 and the “Affinity K sv” value is 0.0285 10^6. Moreover, in series [1], the “X log P3” value was 1.7.
As to `O=C(O[C@@H]1Cc2c(O)cc(O)cc2O[C@@H]1c1cc(O)c(O)c(O)c1)c1cc(O)c(O)c(O)c1` [EGCG (2,3-cis), (−)-epigallocatechin gallate], on xanthine oxidase, the “Affinity n (number of binding sites per enzyme molecule)” value came to 1.2461 and the “Affinity K sv” value is given as 0.0226 10^6.
Consider `Oc1cc(O)c2c(c1)O[C@@H](c1cc(O)c(O)c(O)c1)[C@H](O)C2` [GC (2,3-trans), (−)-gallocatechin], for which the “Quenching of xanthine oxidase fluorescence (in words)” value at xanthine oxidase is given as “not able to quench the fluorescence”.
Take `COc1c(O)cc2occ(-c3ccc(O)cc3)c(=O)c2c1O` [Tectorigenin]: on xanthine oxidase, the “Affinity n (number of binding sites per enzyme molecule)” value was found to be 0.6283 and the “Affinity K sv” value was 0.0644 10^6. In addition, the “X log P3” value in series [1] is given as 2.6.
On to `O=c1c(O)c(-c2ccccc2)oc2cc(O)cc(O)c12` [Galangin], for which, at xanthine oxidase, the “Affinity n (number of binding sites per enzyme molecule)” value stood at 0.9038 and the “Affinity K sv” value was 0.0276 10^6. Moreover, the “X log P3” value in series [1] is 2.3.
Consider `COc1ccc(-c2oc3cc(O)cc(O)c3c(=O)c2O)cc1` [Kaempferide], for which the “X log P3” value in series [1] is 2.2.
Turning to `O=c1c(-c2ccc(O)cc2)coc2c([C@@H]3O[C@H](CO)[C@@H](O)[C@H](O)[C@H]3O)c(O)ccc12` [Puerarin], on xanthine oxidase, the “Affinity n (number of binding sites per enzyme molecule)” value is on record as 1.1801 and the “Affinity K sv” value is 0.0290 10^6. For the same compound, the “X log P3” value in series [1] is recorded as 0.0.
Regarding `COc1ccc(-c2coc3cc(O)ccc3c2=O)cc1` [Formononetin], on xanthine oxidase, the “Affinity n (number of binding sites per enzyme molecule)” value stood at 0.6866 and the “Affinity K sv” value was 0.0147 10^6. For the same compound, the “X log P3” value in series [1] was 2.8.
In the case of `O=c1cc(-c2ccc(O)c(O)c2)oc2cc(O)cc(O)c12` [Luteolin], on xanthine oxidase, the “Affinity n (number of binding sites per enzyme molecule)” value was found to be 1.3087 and the “Affinity K sv” value was 0.0926 10^6. Further, the “X log P3” value in series [1] is on record as 1.4.
Regarding `O=c1c(-c2ccc(O)cc2)coc2cc(O)ccc12` [Daidzein], on xanthine oxidase, the “Affinity n (number of binding sites per enzyme molecule)” value amounted to 1.2554 and the “Affinity K sv” value was 0.0230 10^6.
